In article PMC8266621 (2021):
Each block holds one compound with its values, some of them ahead of it.

Legend:
[1] = test system: 46 nt NMT1 RNA (GAAA loop), wild-type xanthine riboswitch (RNA, riboswitch) GGAGUAGAAGCGUUCAGCGGCCGAAAGGCCGCCCGGAAAUUGCUCC; assay: ITC; settings: K+ 50 mM, Mg2+ 10 mM, 50 mM Tris pH 8.0, 25 °C; for binding: RNA (1.4 mM stock) titrated into 0.1 mM ligand, N.D.; for Kd: RNA titrated into 0.1 mM ligand
[2] = test system: U40C (RNA, riboswitch) GGAGUAGAAGCGUUCAGCGGCCGAAAGGCCGCCCGGAAACUGCUCC; assay: ITC; settings: K+ 50 mM, Mg2+ 10 mM; 50 mM Tris pH 8.0, 25 °C; RNA (1.4 mM stock) titrated into 0.1 mM ligand
[3] = test system: G10C-U40A (RNA, riboswitch) GGAGUAGAACCGUUCAGCGGCCGAAAGGCCGCCCGGAAAAUGCUCC; assay: ITC; settings: K+ 50 mM, Mg2+ 10 mM; 50 mM Tris pH 8.0, 25 °C; RNA (1.4 mM stock) titrated into 0.1 mM ligand
[4] = test system: U40A (RNA, riboswitch) GGAGUAGAAGCGUUCAGCGGCCGAAAGGCCGCCCGGAAAAUGCUCC; assay: ITC; settings: K+ 50 mM, Mg2+ 10 mM; 50 mM Tris pH 8.0, 25 °C; RNA (1.4 mM stock) titrated into 0.1 mM ligand
[5] = test system: C34A (RNA, riboswitch) GGAGUAGAAGCGUUCAGCGGCCGAAAGGCCGCCAGGAAAUUGCUCC; assay: ITC; settings: K+ 50 mM, Mg2+ 10 mM; 50 mM Tris pH 8.0, 25 °C; comparable to wild-type
[6] = test system: A8C (RNA, riboswitch) GGAGUAGCAGCGUUCAGCGGCCGAAAGGCCGCCCGGAAAUUGCUCC; assay: ITC; settings: K+ 50 mM, Mg2+ 10 mM; 50 mM Tris pH 8.0, 25 °C; RNA (1.4 mM stock) titrated into 0.1 mM ligand
[7] = test system: C11G-G35C (RNA, riboswitch) GGAGUAGAAGGGUUCAGCGGCCGAAAGGCCGCCCCGAAAUUGCUCC; assay: ITC; settings: K+ 50 mM, Mg2+ 10 mM; 50 mM Tris pH 8.0, 25 °C; RNA (1.4 mM stock) titrated into 0.1 mM ligand
[8] = test system: G7A-A8G (RNA, riboswitch) GGAGUAAGAGCGUUCAGCGGCCGAAAGGCCGCCCGGAAAUUGCUCC; assay: ITC; settings: K+ 50 mM, Mg2+ 10 mM; 50 mM Tris pH 8.0, 25 °C; RNA (1.4 mM stock) titrated into 0.1 mM ligand
[9] = test system: C11U-G35A (RNA, riboswitch) GGAGUAGAAGUGUUCAGCGGCCGAAAGGCCGCCCAGAAAUUGCUCC; assay: ITC; settings: K+ 50 mM, Mg2+ 10 mM; 50 mM Tris pH 8.0, 25 °C; RNA (1.4 mM stock) titrated into 0.1 mM ligand
[10] = test system: A16G/C33U (RNA, riboswitch) GGAGUAGAAGCGUUCGGCGGCCGAAAGGCCGCUCGGAAAUUGCUCC; assay: ITC; settings: K+ 50 mM, Mg2+ 10 mM; 50 mM Tris pH 8.0, 25 °C; 4-fold less affinity
[11] = test system: A16G (RNA, riboswitch) GGAGUAGAAGCGUUCGGCGGCCGAAAGGCCGCCCGGAAAUUGCUCC; assay: ITC; settings: K+ 50 mM, Mg2+ 10 mM; 50 mM Tris pH 8.0, 25 °C; 4-fold less affinity
[12] = test system: G12A (RNA, riboswitch) GGAGUAGAAGCAUUCAGCGGCCGAAAGGCCGCCCGGAAAUUGCUCC; assay: ITC; settings: K+ 50 mM, Mg2+ 10 mM; 50 mM Tris pH 8.0, 25 °C; 7-fold decrease
[13] = test system: G7Ap (RNA, riboswitch, 2-aminopurine at 7) GGAGUAGAAGCGUUCAGCGGAAACGCCCGGAAAUUGCUCC; assay: 2-aminopurine fluorescence; settings: K+ 100 mM, Mg2+ 20 mM; 100 mM Tris-HCl pH 8.4, 20 °C; 0.5 μM RNA, 3 mM xanthine; qualitative
[14] = test system: G10A (RNA, riboswitch) GGAGUAGAAACGUUCAGCGGCCGAAAGGCCGCCCGGAAAUUGCUCC; assay: ITC; settings: K+ 50 mM, Mg2+ 10 mM; 50 mM Tris pH 8.0, 25 °C; RNA (1.4 mM stock) titrated into 0.1 mM ligand
[15] = test system: A6Ap (RNA, riboswitch, 2-aminopurine at 6) GGAGUAGAAGCGUUCAGCGGAAACGCCCGGAAAUUGCUCC; assay: 2-aminopurine fluorescence; settings: K+ 100 mM, Mg2+ 20 mM; 100 mM Tris-HCl pH 8.4, 20 °C; 0.5 μM RNA, 3 mM xanthine; qualitative
[16] = test system: C34G (RNA, riboswitch) GGAGUAGAAGCGUUCAGCGGCCGAAAGGCCGCCGGGAAAUUGCUCC; assay: ITC; settings: K+ 50 mM, Mg2+ 10 mM; 50 mM Tris pH 8.0, 25 °C; 3- to 4-fold decrease
[17] = test system: A8Ap (RNA, riboswitch, 2-aminopurine at 8) GGAGUAGAAGCGUUCAGCGGAAACGCCCGGAAAUUGCUCC; assay: 2-aminopurine fluorescence; settings: K+ 100 mM, Mg2+ 20 mM; 100 mM Tris-HCl pH 8.4, 20 °C; 0.5 μM RNA, 3 mM xanthine; qualitative
[18] = test system: G35C (RNA, riboswitch) GGAGUAGAAGCGUUCAGCGGCCGAAAGGCCGCCCCGAAAUUGCUCC; assay: ITC; settings: K+ 50 mM, Mg2+ 10 mM; 50 mM Tris pH 8.0, 25 °C; RNA (1.4 mM stock) titrated into 0.1 mM ligand
[19] = test system: C11G (RNA, riboswitch) GGAGUAGAAGGGUUCAGCGGCCGAAAGGCCGCCCGGAAAUUGCUCC; assay: ITC; settings: K+ 50 mM, Mg2+ 10 mM; 50 mM Tris pH 8.0, 25 °C; RNA (1.4 mM stock) titrated into 0.1 mM ligand
[20] = test system: C34U (RNA, riboswitch) GGAGUAGAAGCGUUCAGCGGCCGAAAGGCCGCCUGGAAAUUGCUCC; assay: ITC; settings: K+ 50 mM, Mg2+ 10 mM; 50 mM Tris pH 8.0, 25 °C; 3- to 4-fold decrease
[21] = test system: A8U (RNA, riboswitch) GGAGUAGUAGCGUUCAGCGGCCGAAAGGCCGCCCGGAAAUUGCUCC; assay: ITC; settings: K+ 50 mM, Mg2+ 10 mM; 50 mM Tris pH 8.0, 25 °C; RNA (1.4 mM stock) titrated into 0.1 mM ligand
[22] = test system: G12Ap (RNA, riboswitch, 2-aminopurine at 12) GGAGUAGAAGCGUUCAGCGGAAACGCCCGGAAAUUGCUCC; assay: 2-aminopurine fluorescence; settings: K+ 100 mM, Mg2+ 20 mM; 100 mM Tris-HCl pH 8.4, 20 °C; 0.5 μM RNA, 3 mM xanthine; qualitative
[23] = test system: A9C (RNA, riboswitch) GGAGUAGACGCGUUCAGCGGCCGAAAGGCCGCCCGGAAAUUGCUCC; assay: ITC; settings: K+ 50 mM, Mg2+ 10 mM; 50 mM Tris pH 8.0, 25 °C; RNA (1.4 mM stock) titrated into 0.1 mM ligand
[24] = test system: original sequence (GCCC loop) of the xanthine riboswitch (RNA, riboswitch) GGAGUAGAAGCGUUCAGCGGCCGCCCGGCCGCCCGGAAAUUGCUCC; assay: ITC; settings: K+ 50 mM, Mg2+ 10 mM; 50 mM Tris pH 8.0, 25 °C; RNA titrated into 0.1 mM ligand
[25] = test system: G10C (RNA, riboswitch) GGAGUAGAACCGUUCAGCGGCCGAAAGGCCGCCCGGAAAUUGCUCC; assay: ITC; settings: K+ 50 mM, Mg2+ 10 mM; 50 mM Tris pH 8.0, 25 °C; RNA (1.4 mM stock) titrated into 0.1 mM ligand

SMILES: Nc1ncnc2[nH]cnc12
binding [1]: no

SMILES: O=c1[nH]c(=O)c2[nH]c(=O)[nH]c2[nH]1
Kd [1]: 20.4 ± 1.7 µM

SMILES: O=c1[nH]cnc2c1ncn2[C@@H]1O[C@H](CO)[C@@H](O)[C@H]1O
binding [1]: no

Other lines, results leading:

binding [1]: no
SMILES: Nc1ncnc2c1ncn2[C@@H]1O[C@H](CO)[C@@H](O)[C@H]1O

binding [2]: no
binding [3]: no
binding [4]: no
binding [5]: yes
binding [6]: no
binding [7]: no
binding [8]: no
binding [9]: no
binding [10]: yes
binding [11]: yes
binding [12]: yes
binding [13]: yes
binding [14]: no
binding [15]: yes
binding [16]: yes
Kd [1]: 4.4 ± 0.2 µM
binding [17]: yes
binding [18]: no
binding [19]: no
binding [20]: yes
binding [21]: no
binding [22]: yes
binding [23]: no
Kd [24]: 3.6 ± 0.3 µM
binding [25]: no
SMILES: O=c1[nH]c(=O)c2[nH]cnc2[nH]1

Kd [1]: 3.0 ± 0.1 µM
SMILES: O=c1[nH]c(=O)c2[nH]nnc2[nH]1

binding [1]: no
SMILES: O=c1[nH]cnc2nc[nH]c12
